From patent publication US20210324357A1, “DEGRADATION DOMAIN MODIFICATIONS FOR SPATIO-TEMPORAL CONTROL OF RNA-GUIDED NUCLEASES” (THE BRIGHAM AND WOMEN'S HOSPITAL, INC., priority 2018, published 2021)
“Also recorded” adds a separate entry of the source.

What was measured:
[1] = system: FKBP-Cas9 in U2OS.eGFP-PEST cells; assay: Analysis of Cas9 nuclease activity via genomic eGFP-PEST disruption in U2OS cells; type: cell-based, human; conditions: for NtLp 2xFKBP Cas9 activity (% eGFP disruption): increasing amount of degrader 1.4-1000 nM
Text: In some embodiments, a quantitative human cell-based reporter assay that enables rapid quantitation of targeted nuclease activities is used to characterize off-target cleavage of Cas9-based RNA guided endonucleases. In this assay, the activities of nucleases targeted to a single integrated EGFP reporter gene can be quantified by assessing loss of fluorescence signal in human U2OS.EGFP cells caused by inactivating frameshift insertion/deletion (indel) mutations introduced by error prone non-homologous end-joining (NHEJ) repair of nuclease-induced double-stranded breaks (DSBs).
In one protocol, U2OS.EGFP cells harboring a single integrated copy of an EGFP-PEST fusion gene are cultured (see e.g., Reyon et al., Nat Biotech 30, 460-465 (2012), which is herein incorporated by reference in its entirety). For transfections, 200,000 cells are nucleofected with gRNA expression plasmid and pJDS246 together with 30 ng of a Td-tomato-encoding plasmid using the SE Cell Line 4D-Nucleofector™ X Kit (Lonza) according to the manufacturer's protocol. Cells are analyzed 2 days post-transfection using a BD LSRII flow cytometer. Transfections for optimizing gRNA/Cas9 plasmid concentration are performed in triplicate and all other transfections are performed in duplicate.
In plasmid delivery, approximately 200,000 U20S.eGFP-PEST cells were nucleofected with 300 ng of Cas9 and sgRNA expression plasmids (NtLp 2xFKBP, NtCt 2xFKBP, LpCt 2xFKBP, and 3xFKBP) using the SE Cell Line 4D-Nucleofector X Kit (Lonza) according to the manufacturer's protocol. Approximately 12,000 transfected cells per well were plated in a 96-well plate (Corning 3904) and incubated with dTAG 47 at 1000 nM, 333 nM, 111 nM, 37 nM, 12 nM, 4 nM, 1.4 nM at 37° C. for 48 hrs. In RNP delivery, 15 pmol pre-formed RNP (Cas9 and NtLp 2xFKBP) were nucleofected and followed the protocol described above. Cells were fixed using 4% paraformaldehyde and HCS NuclearMask Blue Stain. The plate was imaged with IXM ImageXpress Automated High Content Microscope at 4× magnification under two excitation channels (blue and green). Images were analyzed in the MetaXpress software.

[2] = system: NtLp 2xFKBP Cas9 RNP in S2 cells; assay: Analysis of Cas9 nuclease activity in Drosophila S2 cell via genomic eGFP disruption; type: cell-based; conditions: RNP delivery, dTAG-47 1000 nM, 10 nM, 0 nM, 48 hrs
Protocol: Approximately 200,000 S2 cells were nucleofected with 15 pmol pre-formed Cas9 RNP (NtLp 2xFKBP) using SE Cell Line 4S-Nucleofector X Kit (Lonza). Approximately 70,000 transfected S2 cells per well were plated in 96-well plate and incubated with 1000 nM and 10 nM dTAG 47. After incubation at room temperature for 48 hrs, cells were stained with HCS Nuclear Mask Blue stain, and imaged with IXM ImageXpress Automated Hifh Content Microscope at 4× magnification under two excitation channels (blue and green).

[3] = system: FKBP-SpCas9 constructs (NtLp 2xFKBP, NtCt 2xFKBP, LpCt 2xFKBP, 3xFKBP) in HEK293FT cells; assay: Western blot analysis of FKBP-SpCas9 degradation; type: cell-based; conditions: increasing amount of dTAG-47 (0.04-3.3 uM), 24h, tubulin loading control
Protocol: HEK293 or NIH3T3 were transfected with pX330 FKBP-Cas9 plasmid using Lipofectamine 2000 or Lipofectamine 3000 to the manufacturer's protocol accordingly. 24 hours after transfection, cells transiently expressing the different constructs (NtLp 2xFKBP, NtCt 2xFKBP, LpCt 2xFKBP, and 3xFKBP) were incubated in either the absence or the presence of dTAG 47 (3.3 uM, 1.1 uM, 0.37 uM, 0.12 uM, 0.042 uM) for 24h before harvesting. Cells were washed with PBS and proceed to lysis in RIPA buffer. The cell suspensions were centrifuged at 16,000 g for 30 min at 4° C. 20 ug of supernatant were electrophoresed on 4-12% Bis-Tris gel with SDS-Tris running buffer. The protein bands were transferred to nitrocellulose membrane at 100V for 1 h and probed with mouse anti-Cas9 antibody (Abcam) and rabbit anti-tubulin as loading control (Abcam). After blocking and incubation with primary antibodies, membranes were incubated with 680-nm or 800-nm fluorophore labeled secondary antibodies. Protein bands were detected using LI-COR Bioisciences Odyssey Imager and analyzed by Image Studeio Lite (LI-COR Biosciences).

SMILES	potency in reducing NtLp 2xFKBP Cas9 activity ([1]; U2OS cells, RNP delivery, comparison of FIG. 4A and 4B)	NtLp 2xFKBP Cas9 activity (% eGFP disruption) ([1]; U2OS cells, RNP delivery)	potency in inducing degradation (eGFP disruption assay of 4 FKBP-Cas9) ([1]; plasmid delivery, comparison of FIG. 3A and 3B)	eGFP disruption by NtLp 2xFKBP Cas9 RNP [2]	Cas9 protein detected (degradation of FKBP-SpCas9) [3]	potency in reducing Cas9 activity ([1]; plasmid delivery and RNP delivery (FIGS. 3A-3B, 4A-4B))
CC[C@H](C(=O)N1CCCC[C@H]1C(=O)O[C@H](CCc1ccc(OC)c(OC)c1)c1ccccc1OCC(=O)NCCCCCCOc1cccc2c1C(=O)N(C1CCC(=O)NC1=O)C2=O)c1cc(OC)c(OC)c(OC)c1 (stereo partly shown) [dTAG-13]	less potent than dTAG-47	reduced but not as significant	less potent than dTAG-47			
CC[C@H](C(=O)N1CCCC[C@H]1C(=O)O[C@H](CCc1ccc(OC)c(OC)c1)c1ccccc1OCC(=O)NCCCCCCCCNc1ccc2c(c1)C(=O)N(C1CCC(=O)NC1=O)C2=O)c1cc(OC)c(OC)c(OC)c1 (stereo partly shown) [dTAG-47]		reduced significantly		less eGFP disrupted	less Cas9 protein was detected; also recorded: less Cas protein was detected	more potent in reducing Cas9 activity
